The values below are quoted from earlier work in US9572829B2, “Treatment of ocular disorders” (Massachusetts Eye and Ear Infirmary, priority 2004, dated 2017).

On the set-up of the data set: unit not given here. Conditions: typical value, general statement.
For the compound `C=Cc1c(C)c2cc3nc(c(CC(=O)N[C@@H](CC(=O)O)C(=O)O)c4[nH]c(cc5nc(cc1[nH]2)C(C)=C5CC)c(C)c4C(=O)O)[C@@H](CCC(=O)O)[C@@H]3C` [N-aspartyl chlorin e6], the “Time that photosensitizer persists in the target neovasculature” value (“Time that photosensitizer persists” below) is “about twenty”.

Consider `CC(=O)[O-].CC(=O)[O-].CCc1c(CC)c2cc3nc(cnc4cc(OCCOCCOCCOC)c(OCCOCCOCCOC)cc4ncc4nc(cc1[n-]2)C(CCCO)=C4C)C(C)=C3CCCO.O.[Lu+3]` [lutetium texaphyrin], for which the “Time that photosensitizer persists” value is “about twenty”.

benzoporphyrin derivative: the “Time that photosensitizer persists” value is “about fifty”.
